Test results from US20060004095A1, “Use of acetyl L-carnitine for the preparation of a medicine for the treatment of neuropathic pain in diabetic patients” (priority 2004, published 2006).

Tests used:
[1] = tested on: patients with type 2 diabetes not on insulin treatment; assay: Double-blind placebo-controlled clinical trials in diabetic peripheral neuropathy, VAS pain assessment; population not on insulin; format: in vivo, human; settings: active only at the higher dose (3 g/day)
Description: (§1) Two double-blind placebo-controlled clinical trials, identical in their experimental design, were conducted in patients with diagnoses of diabetic peripheral neuropathy selected according to the criteria established in the San Antonio, Tex. conference (Diabetes 37:1000-1004, 1988).
(§2) Acetyl L-carnitine was administered orally at doses of 1.5 g/day and 3.0 g/day for continuously for 52 weeks.
(§3) One objective of the studies consisted in the possible modification of the Visual Analogue Scale (VAS) (Scott J. Huskisson EC. Graphic representation of pain. Pain 1976;2:175-184) in the subjective assessment of pain symptoms and the main sensorimotor clinical parameters.

[2] = tested on: patients with type 2 diabetes on insulin treatment; assay: Double-blind placebo-controlled clinical trials in diabetic peripheral neuropathy, VAS pain assessment; population on insulin; format: in vivo, human; settings: even at the higher dose
Description: as §1, §2, §3
The second population comprised patients with type 2 diabetes treated with insulin. Here, too, the population included a placebo group (Group 4) matching up to the same inclusion criteria as the patients treated with acetyl L-carnitine (on insulin treatment).

[3] = tested on: type I and II diabetics with symmetrical distal polyneuropathy or multineuropathy; settings: patients treated with acetyl L-carnitine out of 333 recruited; cited from earlier work

CC(=O)O[C@H](CC(=O)[O-])C[N+](C)(C)C [Acetyl L-carnitine, acetyl L-carnitine]
activity compared to the placebo group at the end of treatment [1]: active in a dose-related manner
activity compared to the control group [2]: no statistically significant difference in activity
patients presenting an improvement in pain symptoms [3]: 39%
